Results reported in patent publication US20020183384A1, “Methods of treating nuclear factor-kappa B mediated diseases and disorders” (priority 2001, published 2002).
Counter-ions that a name gives are not always drawn. Like-named read-outs stand apart in the source and are kept apart here.

Tested on: NF-κB mediated transcription
Assay: NF-κB driven β-lactamase reporter assay in ECV-304 NF-κB.βlaZ cells (AURORA CCF2 fluorescence)
Type: cell-based, human
Settings: 10 μM compound, ECV-304 NF-κB.βlaZ cells stimulated with 10 ng/mL TNF-α or 100 pg/mL IL-1β, 6 hours at 37° C., inhibition of maximum blue/green ratio; for inhibition at 10 µM: Homo sapiens, read-out: Percent Inhibition at 10 μM
Excerpt: Introduction: Described below is an in vitro, cell-based, high throughput screening assay that reliably identifies inhibitors of NF-κB mediated transcription.
The assay takes advantage of AURORA (Aurora Bioscience Corporation, La Jolla, Calif.) fluorescence technology. Endothelial cell vein-304 (ECV-304) cells, an endothelial-like immortalized cell type, may be stably transfected with a plasmid vector containing the cDNA for the enzyme β-lactamase (under the control of a basal promoter, Stratagene pNFκB-luc vector) and 5 copies of an human immunodeficiency virus-1 (HIV-1) NF-κB binding site. ECV-304 cells are described by Takahashi K. et al. in Spontaneous Transformation and Immobilization of Human Endothelial Cells, In Vitro Cell. Dev. Biol. 1990;25:265-274. Activation of NF-κB in ECV-304 by cytokines such as TNF-α or interleuken-1 beta (IL-1β) results in the production of β-lactamase, which cleaves a green fluorescent substrate (excitation/emission wavelengths 395 nm1530 nm) to yield a blue fluorescent product (excitation/emission wavelengths 395 nm/460 nm). Visually, the uncleaved green fluorescent substrate is sequestered intracellularly and emits green fluorescence, while the cleaved product emits blue fluorescence. Fluorescence is quantitated spectrophotometrically, and the spectral intensity of blue fluorescence versus green fluorescence can be used to calculate the degree of activation of NF-κB.
The assay was performed as outlined here and described in detail below. ECV-304 cells permanently transfected with the NF-κB driven β-lactamase gene (ECV-304 NF-κB.βlaZ) were plated in clear-bottom, black 96-well plates (1.25×10^4 cells/well) in media-199 (M-199) media containing 2% fetal bovine serum (FBS). […] The AURORA fluorescent disclosing reagent was then added. After one additional hour, the plates were read in a fluorometer at the blue 395 nm/460 nm (excitation/emission) and green 395 nm/530 nm wavelengths. Then the blue/green emission ratio was calculated. […] An IC50 for said sulfonylaminocarbonyl derivative was determined from a dose-response curve. This assay was designed to be optionally run in either high or low throughput screening modes.
Five copies of the HIV-1 NF-κB binding site (5′-[…]-3′) along with a TATA box were inserted into the EcorRI/BamHI sites of plasmid pMCRBlaZ to create plasmid p5×KBBlaZ, which procedure is illustrated in Scheme 1 below. [formula]
Cells were selected for antibiotic resistance with Zeocin for approximately 2 weeks. After the stable population had been expanded to a significant number of cells, it was stimulated with IL-1β and stained with AURORA CCF2 dye, a membrane permeant, intracellularly-trapped, fluorescent substrate. Cells that fluoresced blue (indicating a positive response of the NF-κB/β-lactamase reporter to stimulation by IL-1β) in the stimulated/stained population were then sorted by flow cytometry into a pool. The pool was expanded and stained with CCF2, and then the cells that fluoresced green from this unstimulated population (indicating a low background of the NF-κB/β-lactamase reporter construct) were cloned by flow cytometry after adding 1 cell per well in 96-well plates. Clones were allowed to expand. Each cloned cell line was then examined for fold stimulation after stimulation with IL-1β using a CCF2 reporter assay, and these stimulated cells were compared to unstimulated cells.
Cells: ECV-304 NF-κB β-Lactamase clone 1E8
Inhibitors: Prepared stock solutions of aminosulfonyl derivatives at 10 mM concentration in DMSO;
c) Added 10 μL of B into appropriate well in assay plate (the final concentration of drug is 10 μM), and […]

SMILES	inhibition at 10 µM	also measured
CC(C)c1cccc(C(C)C)c1OC(=O)NS(=O)(=O)N(c1ccccc1)c1ccccc1 [Example 26, Carbamic acid, [(diphenylamino)sulfonyl]-, 2,6-bis(1-methylethyl)phenyl ester]	32.8%	–
CCCCN(CCCC)S(=O)(=O)NC(=O)Oc1c(C(C)C)cccc1C(C)C [Example 27, Carbamic acid, [(dibutylamino)sulfonyl]-, 2,6-bis(1-methylethyl)phenyl ester]	26.1%	–
CC(C)c1cccc(C(C)C)c1OC(=O)NS(=O)(=O)Oc1c(C(C)C)cccc1C(C)C [Example 28, Carbamic acid, [[2,6-bis(1-methylethyl)phenoxy]sulfonyl]-, 2,6-bis(1-methylethyl)phenyl ester]	30.2%	–
CC(C)c1cccc(C(C)C)c1NS(=O)(=O)NC(=O)N(Cc1ccccc1)Cc1ccccc1 [Example 29, N′-[[[2,6-bis(1-methylethyl)phenyl]amino]sulfonyl]-N,N-bis(phenylmethyl)-urea]	–	inhibition at 10 µM (ECV-304, 6 h): 38.5%
CCCCN(CCCC)S(=O)(=O)NC(=O)Oc1c(C(C)(C)C)cc(C)cc1C(C)(C)C [Example 30, Carbamic acid, [(dibutylamino)sulfonyl]-, 2,6-bis(1,1-dimethylethyl)-4-methylphenyl ester]	52%	–
CCCCCN(CCCCC)S(=O)(=O)NC(=O)Oc1c(C(C)(C)C)cc(C)cc1C(C)(C)C [Example 31, Carbamic acid, [(dipentylamino)sulfonyl]-, 2,6-bis(1,1-dimethylethyl)-4-methylphenyl ester]	74%	–
Cc1cc(C(C)(C)C)c(OC(=O)NS(=O)(=O)N(C(C)C)C(C)C)c(C(C)(C)C)c1 [Example 32, Carbamic acid, [[bis(1-methylethyl)amino]sulfonyl]-, 2,6-bis(1,1-dimethylethyl)-4-methylphenyl ester]	20.3%	–
CCCCCCN(CCCCCC)S(=O)(=O)NC(=O)Oc1c(C(C)(C)C)cc(C)cc1C(C)(C)C [Example 33, Carbamic acid, [(dihexylamino)sulfonyl]-, 2,6-bis(1,1-dimethylethyl)-4-methylphenyl ester]	58.6%	–
CCCCCCNS(=O)(=O)NC(=O)Oc1c(C(C)(C)C)cc(C)cc1C(C)(C)C [Example 34, Carbamic acid, [(hexylamino)sulfonyl]-, 2,6-bis(1,1-dimethylethyl)-4-methylphenyl ester]	24.3%	–
CC(C)c1cccc(C(C)C)c1NC(=O)NS(=O)(=O)N1CCC(c2ccccc2)CC1 [Example 35, N-[2,6-bis(1-methylethyl)phenyl]-N′-[(4-phenyl-1-piperidinyl)-sulfonyl]-urea]	–	inhibition at 10 µM (ECV-304, 6 h): < 10%
CCCCCCN(CCCCCC)S(=O)(=O)NC(=O)Nc1c(C(C)C)cccc1C(C)C [Example 36, N-[2,6-bis(1-methylethyl)phenyl]-N′-[(dihexylamino)sulfonyl]-urea]	–	inhibition at 10 µM (ECV-304, 6 h): 51.2%
CC(C)c1cccc(C(C)C)c1NC(=O)NS(=O)(=O)N(CCCN(C)C)CCCN(C)C [Example 37, N-[[bis[3-(dimethylamino)propyl]amino]sulfonyl]-N′-[2,6-bis(1-methylethyl)phenyl]-urea]	–	inhibition at 10 µM (ECV-304, 6 h): < 10%
Cc1cc(C(C)(C)C)c(OC(=O)NS(=O)(=O)N(C)CCc2ccccc2)c(C(C)(C)C)c1 [Example 38, Carbamic acid, [[methyl(2-phenylethyl)amino]sulfonyl]-, 2,6-bis(1,1-dimethylethyl)-4-methylphenyl ester]	31.5%	–
CCCCCCNS(=O)(=O)NC(=O)Nc1c(C(C)C)cccc1C(C)C [Example 39, N-[2,6-bis(1-methylethyl)phenyl]-N′-[(hexylamino)sulfonyl]-urea]	–	inhibition at 10 µM (ECV-304, 6 h): < 10%
Cc1cc(C(C)(C)C)c(OC(=O)NS(=O)(=O)N(CCCN(C)C)CCCN(C)C)c(C(C)(C)C)c1 [Example 40, Carbamic acid, [[bis[3-(dimethylamino)propyl]amino]sulfonyl]-, 2,6-bis(1,1-dimethylethyl)-4-methylphenyl ester]	< 10%	–
CC(C)c1cccc(C(C)C)c1NC(=O)NS(=O)(=O)N(CC1CCCO1)CC1CCCO1 (stereo not drawn) [Example 41, N-[2,6-bis(1-methylethyl)phenyl]-N′-[[bis[(tetrahydro-2-furanyl)methyl]amino]sulfonyl]-urea,]	–	Percent Inhibition at 10 μM: <10%
Cc1cc(C(C)(C)C)c(OC(=O)NS(=O)(=O)N(C)CCc2ccccn2)c(C(C)(C)C)c1 [Example 42, Carbamic acid, [[methyl[2-(2-pyridinyl)ethyl]amino]sulfonyl]-, 2,6-bis(1,1-dimethylethyl)-4-methylphenyl ester, monohydrochloride]	< 10%	–
CCCCCCCCN(C)S(=O)(=O)NC(=O)Oc1c(C(C)(C)C)cc(C)cc1C(C)(C)C [Example 43, Carbamic acid, [(methyloctylamino)sulfonyl]-, 2,6-bis(1,1-dimethylethyl)-4-methylphenyl ester]	70.2%	–
CCN(CC)S(=O)(=O)NC(=O)Nc1c(C(C)C)cccc1C(C)C [Example 44, Urea, N-[2,6-bis(1-methylethyl)phenyl]-N′-[(diethylamino)sulfonyl]-]	–	inhibition at 10 µM (ECV-304, 6 h): < 10%
CCCCCCCCN(C)S(=O)(=O)NC(=O)Nc1c(C(C)C)cccc1C(C)C [Example 45, Urea, N-[2,6-bis(1-methylethyl)phenyl]-N′-[(methyloctylamino)sulfonyl]-]	–	inhibition at 10 µM (ECV-304, 6 h): 53.5%
CCCCCCCCN(CCCCCCCC)S(=O)(=O)NC(=O)Oc1c(C(C)(C)C)cc(C)cc1C(C)(C)C [Example 46, Carbamic acid, [(dioctylamino)sulfonyl]-, 2,6-bis(1,1-dimethylethyl)-4-methylphenyl ester]	34.8%	–
COc1cc(C(C)(C)C)c(OC(=O)NS(=O)(=O)NCC(c2ccccc2)c2ccccc2)c(C(C)(C)C)c1 [Example 47, Carbamic acid, [[(2,2-diphenylethyl)amino]sulfonyl]-, 2,6-bis(1,1-dimethylethyl)-4-methoxyphenyl ester]	41.9%	–
Cc1cc(C(C)(C)C)c(OC(=O)NS(=O)(=O)Oc2ccccc2)c(C(C)(C)C)c1 [Example 48, Carbamic acid, (phenoxysulfonyl)-, 2,6-bis(1,1-dimethylethyl)-4-methylphenyl ester]	13.8%	–
CCCCCCOS(=O)(=O)NC(=O)Oc1c(C(C)(C)C)cc(C)cc1C(C)(C)C [Example 49, Carbamic acid, [(hexyloxy)sulfonyl]-, 2,6-bis(1,1-dimethylethyl)-4-methylphenyl ester]	22.9%	–
COc1cc(C(C)(C)C)c(OC(=O)NS(=O)(=O)Nc2c(C(C)C)cccc2C(C)C)c(C(C)(C)C)c1 [Example 50, Carbamic acid, [[[2,6-bis(1-methylethyl)phenyl]amino]sulfonyl]-, 2,6-bis(1,1-dimethylethyl)-4-methoxyphenyl ester]	39.1%	–
CCCCCCCCCCCCOS(=O)(=O)NC(=O)Oc1c(C(C)(C)C)cc(C)cc1C(C)(C)C [Example 51, Carbamic acid, [(dodecyloxy)sulfonyl]-, 2,6-bis(1,1-dimethylethyl)-4-methylphenyl ester]	47.2%	–
CCCCCCCCCCN(CCCCCCCCCC)S(=O)(=O)NC(=O)Oc1c(C(C)(C)C)cc(C)cc1C(C)(C)C [Example 52, Carbamic acid, [(didecylamino)sulfonyl]-, 2,6-bis(1,1-dimethylethyl)-4-methylphenyl ester]	< 10%	–
